According to patent US7635561B2, “Methods of diagnosing, prognosing and treating breast cancer” (Temple University of the Commonwealth System of Higher …, priority 2003, dated 2009):

What was measured:
Assay type in all cases: cell-based
ER-α in MDA-MB-231 cells = test: Effect of 5-Aza-2dC on ER-α RNA (RT-PCR) and protein (Western blot) expression in MDA-MB-231 cells
Procedure: The expression of β-actin protein in each sample was assessed to normalize protein loading.
The breast carcinoma cell lines, MCF-7 (estrogen receptor-positive), MDA-MB-231 (estrogen receptor-negative) and the normal mammary epithelial cell line MCF-12A, were obtained from ATCC (Rockville, Md.) and were cultured according to the manufacturer's protocols. The breast primary tumors were selected on the basis of estrogen receptor status.
Control cells were left untreated. Total RNA was isolated from the treated and control cells, and ER-α RNA was detected by reverse-transcription polymerase chain reaction (RT-PCR). P-actin RNA expression was also determined by RT-PCR in total RNA isolated from treatment and control cells to normalize RNA loading. […] The expression of β-actin protein was assessed to normalize protein loading.

[1] = system: pRb2/p130-multimolecular complex on ER-α promoter in MDA-MB-231 cells; test: XChIP analysis of recruitment of pRb2/p130-multimolecular complex to the ER-α promoter in 5-Aza-2dC treated MDA-MB-231 cells; details: 72 hours treatment, complex contained pRb2/p130, E2F4, SUV39H1, p300, HDAC1
Procedure: Soluble chromatin was immunoprecipitated with specific antibodies recognizing pRb2/p130, E2F4, HDAC1, SUV39H1, DNMT1, and p300. The presence of ER-α promoter sequences in the immunoprecipitates was tested by PCR using specific primers spanning ER-α promoter.
Chromatin immunoprecipitations were performed using a modified procedure of previously published methods (see Orlando et al., 1997, Methods and 11, 205; Keller et al., 2002, J. Biol. Chem., 277, 31430, the entire disclosures of which are herein incorporated by reference), in combination with Western blot and PCR techniques. Approximately 1×10^6 MCF-7 and MDA-MB-231 cells were cross-linked by adding formaldehyde (1% final concentration) directly to the culture medium, and incubating the cells for 8 minutes at 37° C.
After removal of the medium, cells were washed three times on plates with cold phosphate-buffered saline (PBS) containing protease inhibitors (1 mM phenylmethyl-sulfonyl fluoride, 1 μg/ml aprotinin and 1 μg/ml pepstatin A), scraped, and washed again twice in cold PBS. […]
The recruitment of pRb2/p130-multimolecular complexes to ER-α promoter was analyzed in MCF-7 and MDA-MB-231 cells by XChIP. […]

[2] = system: pRb2/p130-multimolecular complex on ER-α promoter in MCF-7 cells; test: XChIP analysis of recruitment of pRb2/p130-multimolecular complex to the ER-α promoter in 5-Aza-2dC treated MCF-7 cells; details: 72 hours treatment
Procedure: After removal of the medium, cells were washed three times on plates with cold phosphate-buffered saline (PBS) containing protease inhibitors (1 mM phenylmethyl-sulfonyl fluoride, 1 μg/ml aprotinin and 1 μg/ml pepstatin A), scraped, and washed again twice in cold PBS. The cell pellet was resuspended in SDS lysis buffer (1% SDS, 10 mM EDTA, 50 mM Tris-HCl, pH 8.1), incubated for 10 minutes on ice, sonicated to shear DNA to lengths between 300 and 500 bp, and centrifuged for 10 minutes at 13,000 rpm at 4° C. Sonicated cell supernatant was diluted in ChIP dilution buffer (0.01% SDS, 1.1% Triton X-100, 1.2 mM EDTA, 16.7 mM Tris-HCL, pH 8.1, 167 mM NaCL), and pre-cleared twice with salmon sperm DNA/protein A agarose at 4° C. for 2 hours. The agarose was pelleted and the supernatant fraction was collected and incubated overnight at 4° C. with the immunoprecipitating antibody.
As negative controls, a “no-antibody” immunoprecipitation was performed by incubating the supernatant fraction with salmon sperm DNA/protein A agarose, and immunoprecipitating the mixture with an irrelevant antibody. […]

Nc1ncn([C@H]2C[C@H](O)[C@@H](CO)O2)c(=O)n1 [5-Aza-2dC, 5-Aza-2′-deoxycytidine]
time of maximal ER-α RNA expression (ER-α in MDA-MB-231 cells; MDA-MB-231 cells treated with 5-Aza-2dC): 72 h | expression of ER-α RNA (ER-α in MDA-MB-231 cells; MDA-MB-231 cells, 2.5 μM, 24-96 hours, RT-PCR, especially evident at 48-96 h): significantly enhanced | expression of ER-α protein (ER-α in MDA-MB-231 cells; MDA-MB-231 cells, 2.5 μM, 24-96 hours, Western blot, especially evident at 48-96 h): significantly enhanced | composition of pRb2/p130-multimolecular complex recruited to ER-α promoter [1]: did not contain DNMT1 | composition of pRb2/p130-multimolecular complex recruited onto ER-α promoter [2]: did not influence the composition
